# Results published in US8182983B2, “Method for determining immune system affecting compounds” (Canimguide Therapeutics AB, priority 2002, dated 2012).
# B1: MMP-2: matrix metalloproteinase (R&D Systems), activated (protein, UniProt P08253 110-660, looked up)
# 72 kDa type IV collagenase: YNFFPRKPKWDKNQITYRIIGYTPDLDPETVDDAFARAFQVWSDVTPLRFSRIHDGEADIMINFGRWEHGDGYPFDGKDGLLAHAFAPGTGVGGDSHFDDDELWTLGEGQVVRVKYGNADGEYCKFPFLFNGKEYNSCTDTGRSDGFLWCSTTYNFEKDGKYGFCPHEALFTMGGNAEGQPCKFPFRFQGTSYDSCTTEGRTDGYRWCGTTEDYDRDKKYGFCPETAMSTVGGNSEGAPCVFPFTFLGNKYESCTSAGRSDGKMWCATTANYDDDRKWGFCPDQGYSLFLVAAHEFGHAMGLEHSQDPGALMAPIYTYTKNFRLSQDDIKGIQELYGASPDIDLGTGPTPTLGPVTPEICKQDIVFDGIAQIRGEIFFFKDRFIWRTVTPRDKPMGPLLVATFWPELPEKIDAVYEAPQEEKAVFFAGNEYWIYSASTLERGYPKPLTSLGLPPDVQRVDAAFNWSKNKKTYIFAGDKFWRYNEVKKKMDPGFPKLIADAWNAIPDNLDAVVDLQGGGHSYFFKGAYYLKLENQSLKSVKFGSIKSDWLGC
# modifications: activated
# Tests used:
# Assay type in all cases: cell-based, human
# [1] = test system: PBMC from healthy volunteers; assay: Inhibition of IL-1Ra production by PBMC with Tosyl
# Protocol: Monokines were assessed by ELISA using the DuoSet ELISA development system for human IL-6, TNF-α or IL-1β (R&D Systems Europe, Ltd. UK) following the manufacturer's recommended procedures. Lower limit of detection was […] for IL-6, […] for TNF-α and […] for IL-1β. IL-10 was detected with a kit from Diaclone Research, FR. The lower limit of detection was […]. Human IL-1Ra was detected with a quantitative sandwich ELISA using a monoclonal mouse anti-human IL-1Ra as capture antibody and a biotinylated goat anti-human IL-1Ra as developing antibody (both from R&D Systems). […] Following incubation for 1 hr at room temperature, plates were washed and the amount of bound IL-1Ra was measured by hydrolysis of paranitrophenyl phosphate (Sigma). Optical density was read at dual wavelengths, 405 nm and 570 nm, respectively, in a Multiscan EX microplate reader (Labsystems). […]
# Inhibition of IL-1Ra production by PBMC with Tosyl PBMC (2×10^6/ml) from healthy volunteers were pre-incubated with various concentrations of Na-p-Tosyl-L-lysine chloromethyl ketone (Tosyl, Sigma) diluted in RPMI1640/2% HSA for 30 minutes at 37° C. after which the cell suspensions were washed three times in RPMI/2% HSA. […] Viability of cultured PBMCs were also assessed after 24 hrs by Trypan blue exclusion and found to be 100%. […]
# PBMC from RCC patients = assay: TNF-α in PHA stimulated PBMC cultures with chlorambucil; conditions: chlorambucil 1 μg/ml, 72 hours, responders vs non-responders to interleukin-2
# Protocol: PHA stimulated proliferation of PBMC with and without chlorambucil Venous blood was drawn at the indicated time points from RCC patients undergoing IL-2 (Proleukin, Chiron, NL) therapy. Mononuclear cells were isolated by Ficoll-Isopaque (Pharmacia, SE) density gradient centrifugation. 5×10^4 PBMC in a final volume of 200 μl were seeded into round-bottomed microtiter plates (Corning Inc. NY, US) in culture medium consisting of RPMI 1640 supplemented with 100 IU/ml Penicillin, 100 μg/ml Streptomycin (Flow laboratories) and 10% heat-inactivated, autologous fresh serum. […]
# PHA-stimulated cultures with or without chlorambucil (1 µg/ml) were set up in parallel as described above for mitogen-stimulated cultures. […] The amount of TNF-α in the SNs was evaluated with an ELISA kit from Immunotech S.A., FR, according to the manufacturer's instructions. […]
# Comparisons between the proliferative response to PHA in different groups or at different test occasions were done on logarithmated mean values of dpm of triplicates using unpaired t-test. For the determination of the effect of addition of CHL on the proliferative response of PHA-stimulated PBMCs, a modulation index (MI) was calculated according to the following formula: MI=log(dpm PHA+drug/dpm PHA).
# normal PBMCs [2] = assay: Fragmentation of IgG and serum albumin using MMPs, IL-6 inducing activity of supernatants; conditions: supernatants tested on normal PBMCs; for release of fragments inducing or modulating IL-6 production from albumin: serum albumin incubated with MMP; for release of fragments inducing or modulating IL-6 production from IgG: IgG incubated with MMP
# Protocol: MMP-1, -2, -13 (R&D Systems) and MMP-3 and -7 (Chemicon, UK) were activated according to instructions of the manufacturer. […] The mixtures were incubated for 5-20 hours at 37° C. Parallel incubations of MMP or the substrates alone, in respective buffer, were set up as controls. The mixtures were buffer exchanged to RPMI as described previously and filtered through a 0.45 μm Millex-HV syringe filter (Millipore, MA, US). Storing of mixtures, when needed, was performed at −70° C. until analysing by gel-electrophoresis and testing for monokine inducing activity in fresh, normal PBMC as described above.
# PBMC from healthy donors = assay: IL-2 induced proliferation of PBMC in the presence of collagen/collagen fragments; conditions: collagen 26 ug/ml, PBMCs from healthy donors, autologous serum
# Protocol: 100 μl of RPMI1640 supplemented with 200 IU/ml penicillin, […] streptomycin, 4 mM L-glutamine (all from Sigma Chemical Co. MO, US) and 20% heat-inactivated human serum (autologous or from cancer patients) were added to uncoated, HSA or HSA/IgG coated tissue culture microtiter plates. PBMC, isolated from healthy individuals or patients with metastatic renal cell carcinoma, were diluted in RPMI/2%1-ISA at a concentration of 5×10^5/ml and 100 μl were added to the microtiter wells. Interleukin-2 (IL-2, Proleukin, Chiron, NL), at a final concentration of 120 IU/well, was added to some wells. Cells were cultured for 7 days in a humidified, 5% CO2-atmosphere at 37° C.
# Proliferation was assayed by incorporation of 1.6 μCi/well of [3H]-thymidine (Amersham Int., UK) during the last 18 hrs. Mean values of dpm (disintegrations per minute) of triplicates were used for the calculations.
# Purified collagen from human skin (Sigma) at a concentration of 100 µg/ml was incubated in 100 mM Tris-HCl, pH 7.6, containing 0.15 M NaCl, 10 mM CaCl2 and 0.05% Brij35 over night at 37° C. The buffer was then exchanged to RPMI1640 by gel filtration through a Sephadex-G25 (PD-10) column (Amersham Biosciences) and filtered through a 0.45 μm Millex-HV syringe filter (Millipore) and frozen at −70° C. until use. […]
# normal PBMCs [3] = assay: Homogenised, washed tumour tissue incubated with MMP-2, IL-6 inducing activity; conditions: MMP-2 5 ng/ml; 20 hours at 37° C.
# Protocol: The collection, washing and homogenisation of tumour cryo sections (3×300 μm) were carried out as described above. The pelleted tumour tissue was suspended in 0.5 ml cold RPMI/PEST. MMP-2 (R&D Systems, UK), activated according to instructions from the manufacturer, was added at a final concentration of 5 ng/ml. The tumour tissue suspension was incubated with MMP-2 for 20 h at 37° C. and the supernatant collected after centrifugation. Parallel incubation of tumour tissue with no addition of MMP-2 was set up as a control. The mixtures were buffer exchanged to RPMI by gel filtration through a Sephadex-G25 (PD-10) column (Amersham Biosciences, SE) and filtered through a 0.45 μm Millex-HV syringe filter (Millipore, MA, US). Finally, the mixtures were analysed by gel-electrophoresis and tested for monokine inducing activity in fresh normal PBMC as described above.
Molecule,release of fragments inducing or modulating IL-6 production from albumin (normal PBMCs [2]),release of fragments inducing or modulating IL-6 production from IgG (normal PBMCs [2]),other results
"Cc1ccc(S(=O)(=O)NC(CCCCN)C(=O)CCl)cc1 [Tosyl, Na-p-Tosyl-L-lysine chloromethyl ketone]",–,–,"Viability of cultured PBMCs by Trypan blue exclusion ([1]; after 24 hrs, PBMC pre-incubated with Tosyl): 100%; effect on production of IL1Ra ([1]; non-toxic concentrations, PBMC from healthy individuals (n=9), plates pre-coated with HSA or HSA/IgG): significantly reduced production"
"O=C(O)CCCc1ccc(N(CCCl)CCCl)cc1 [chlorambucil, Chlorambucil]",–,–,TNF-α production in PHA stimulated cultures with chlorambucil (PBMC from RCC patients): in non-responders TNF-α production is more stimulated than in responders
"MMP-1: matrix metalloproteinase (R&D Systems), activated",released active fragments,–,–
"MMP-3: matrix metalloproteinase (Chemicon), activated",released active fragments,released active fragments,–
"MMP-7: matrix metalloproteinase (Chemicon), activated",–,released active fragments,–
collagen,–,–,effect on IL-2 induced proliferation (PBMC from healthy donors): strongly inhibitory effect; effect on IL-2 induced proliferation (PBMC from healthy donors; listed as collagen/collagen fragments): strong inhibitory effect was demonstrated in two out of three experiments
B1,released active fragments,released active fragments,release of IL-6 inducing activity from washed tumour tissue (normal PBMCs [3]): modulated the release of IL-6 inducing activity
